Values quoted from earlier work, collected in patent US9884017B2, “Foamable vehicles and pharmaceutical compositions comprising aprotic polar solvents and uses thereof” (Foamix Pharmaceuticals Ltd., priority 2009, dated 2018).

Conditions: 25° C.

Row | Compound | Dielectric constant | Polarity [Debye]
1 | CN(C)C=O [DMF, dimethylformamide] | 36.7 | 3.8
2 | C[S+](C)[O-] [DMSO, Dimethyl sulfoxide] | 46.4 | 4.3
